Patent publication US9440950B2, “Arginine methyltransferase inhibitors and uses thereof” (Epizyme, Inc., priority 2013, dated 2016)

system: Mono-Methyl Arginine in RKO cells; assay: RKO Methylation Assay (In Cell Western); type: cell-based; settings: Homo sapiens, 72 hours, percent activation
From the text: RKO Methylation Assay RKO adherent cells were purchased from ATCC (American Type Culture Collection), Manassas, Va., USA. DMEM/Glutamax medium, penicillin-streptomycin, heat inactivated fetal bovine serum, 0.05% trypsin and D-PBS were purchased from Life Technologies, Grand Island, N.Y., USA. Odyssey blocking buffer, 800CW goat anti-rabbit IgG (H+L) antibody, and Licor Odyssey infrared scanner were purchased from Licor Biosciences, Lincoln, Nebr., USA. Mono-methyl arginine antibody was purchased from Cell Signaling Technology, Danvers, Mass., USA. Methanol was purchased from VWR, Franklin, Mass., USA. 10% Tween 20 was purchased from KPL, Inc., Gaithersburg, Md., USA. DRAQ5 was purchased from Biostatus Limited, Leicestershire, UK. RKO adherent cells were maintained in growth medium (DMEM/Glutamax medium supplemented with 10% v/v heat inactivated fetal bovine serum and 100 units/mL penicillin-streptomycin) and cultured at 37° C. under 5% CO2. Cell Treatment, In Cell Western (ICW) for Detection of Mono-Methyl Arginine and DNA Content. RKO cells were seeded in assay medium at a concentration of 20,000 cells per mL to a poly-D-lysine coated 384 well culture plate (BD Biosciences 356697) with 50 μL per well. Compound (100 nL) from a 96-well source plate was added directly to 384 well cell plate. Plates were incubated at 37° C., 5% CO2 for 72 hours. After three days of incubation, plates were brought to room temperature outside of the incubator for ten minutes and blotted on paper towels to remove cell media. 50 μL of ice cold 100% methanol was added directly to each well and incubated for 30 min at room temperature. After 30 min, plates were transferred to a Biotek EL406 plate washer and washed 2 times with 100 μL per well of wash buffer (IX PBS). Next 60 μL per well of Odyssey blocking buffer (Odyssey Buffer with 0.1% Tween 20 (v/v)) were added to each plate and incubated 1 hour at room temperature. Blocking buffer was removed and 20 μL per well of primary antibody was added (mono-methyl arginine diluted 1:200 in Odyssey buffer with 0.1% Tween 20 (v/v)) and plates were incubated overnight (16 hours) at 4° C. Plates were washed 5 times with 100 μL per well of wash buffer. Next 20 μL per well of secondary antibody was added (1:200 800CW goat anti-rabbit IgG (H+L) antibody, 1:1000 DRAQ5 (Biostatus limited) in Odyssey buffer with 0.1% Tween 20 (v/v)) and incubated for 1 hour at room temperature. The plates were washed 5 times with 100 μL per well wash buffer then 2 times with 100 μL per well of water. Plates were allowed to dry at room temperature then imaged on the Licor Odyssey machine which measures integrated intensity at 700 nm and 800 nm wavelengths. Both 700 and 800 channels were scanned. Calculations: First, the ratio for each well was determined by: Each plate included fourteen control wells of DMSO only treatment (minimum activation) as well as fourteen control wells for maximum activation treated with 20 μM of a reference compound. The average of the ratio values for each control type was calculated and used to determine the percent activation for each test well in the plate. Reference compound was serially diluted three-fold in DMSO for a total of nine test concentrations, beginning at 20 μM. Percent activation was determined and EC30 curves were generated using triplicate wells per concentration of compound.

SMILES	EC30 [µM]
CN(CCN)Cc1c[nH]nc1-c1ccc(NCc2ccccc2)nc1 [Compound 25]	3.01 to 12
CNCCN(C)Cc1c[nH]nc1-c1ccc(N(C)CCC(C)C)nc1 [Compound 30]	3.01 to 12
COc1cc(-c2n[nH]cc2CN(C)CCN)ccn1 [Compound 11]	3.01 to 12
COc1ncc(Cl)cc1-c1n[nH]cc1CN(C)CCN [Compound 14]	> 12
CC(C)CNc1ccc(-c2n[nH]cc2CN(C)CCN)cn1 [Compound 26]	> 12
CN(CCN)Cc1c[nH]nc1-c1cncc(Cl)c1 [Compound 19]	3.01 to 12
CN(CCN)Cc1c[nH]nc1-c1ccncc1 [Compound 9]	3.01 to 12
CN(CCN)Cc1c[nH]nc1-c1cncc(C#N)c1 [Compound 18]	> 12
CNCCN(C)Cc1c[nH]nc1-c1ccc(OCC(C)C)nc1 [Compound 35, N^1-((3-(6-iso-butoxypyridin-3-yl)-1H-pyrazol-4-yl)methyl)-N^1,N^2-dimethylethane-1,2-diamine]	< 3
CN(CCN)Cc1c[nH]nc1-c1cncc(F)c1 [Compound 7]	> 12
CC(C)CN(C)c1ccc(-c2n[nH]cc2CN(C)CCN)cn1 [Compound 21]	3.01 to 12
CCN(CCC(C)C)c1ccc(-c2n[nH]cc2CN(C)CCNC)cn1 [Compound 34, N^1-((3-(6-(ethyl(isopentyl)amino)pyridin-3-yl)-1H-pyrazol-4-yl)methyl)-N^1,N^2-dimethylethane-1,2-diamine]	< 3
COc1cc(-c2n[nH]cc2CN(C)CCN)c(Cl)cn1 [Compound 12]	> 12
CNCCN(C)Cc1c[nH]nc1-c1ccc(N(C)C(C)C)nc1 [Compound 33, N^1-((3-(6-(isopropyl(methyl)amino)pyridin-3-yl)-1H-pyrazol-4-yl)methyl)-N^1,N^2-dimethylethane-1,2-diamine]	< 3
COc1ncccc1-c1n[nH]cc1CN(C)CCN [Compound 15]	> 12
Cc1ccncc1-c1n[nH]cc1CN(C)CCN [Compound 17]	> 12
COc1ccc(-c2n[nH]cc2CN(C)CCN)cn1 [Compound 5]	> 12
CCN(CC(C)C)c1ccc(-c2n[nH]cc2CN(C)CCNC)cn1 [Compound 36]	3.01 to 12
COc1ccncc1-c1n[nH]cc1CN(C)CCN [Compound 16]	> 12
CCN(CC)c1ccc(-c2n[nH]cc2CN(C)CCN)cn1 [Compound 24]	> 12
CC(C)Oc1ccc(-c2n[nH]cc2CN(C)CCN)cn1 [Compound 22]	< 3
CN(CCN)Cc1c[nH]nc1-c1ccc(N2CCOCC2)nc1 [Compound 20]	3.01 to 12
CN(CCN)Cc1c[nH]nc1-c1ccc(C(F)(F)F)nc1 [Compound 13, N^1-methyl-N^1-((3-(6-(trifluoromethyl)pyridin-3-yl)-1H-pyrazol-4-yl)methyl)ethane-1,2-diamine]	< 3
CNCCN(C)Cc1c[nH]nc1-c1ccc(N(C)CC(C)C)nc1 [Compound 32, N^1-((3-(6-(isobutyl(methyl)amino)pyridin-3-yl)-1H-pyrazol-4-yl)methyl)-N^1,N^2-dimethylethane-1,2-diamine]	< 3
CNCCN(C)Cc1c[nH]nc1-c1ccc(N(CC(C)C)CC(C)C)nc1 [Compound 31]	> 12
CN(CCN)Cc1c[nH]nc1-c1ccc(N(C)Cc2ccccc2)nc1 [Compound 23]	3.01 to 12
